Test results reported in patent US10030020B2, “Spirocycle compounds and methods of making and using same” (Abide Therapeutics, Inc., priority 2016, dated 2018).

How the values were obtained:
[1] = biological target: T1, MAGL (Mus musculus (Mouse), UniProt O35678); assay: In vitro competitive activity-based protein profiling (mouse brain membrane fraction or cell lysates), MAGL band; assay type: biochemical; conditions: mouse proteome; for IC50: competitive ABPP; for inhibition at 1 µM: read-out: MAGL % Inh 1 μM (mouse)
Description: In Vitro Competitive Activity-Based Protein Profiling.
Proteomes (mouse brain membrane fraction or cell lysates) (50 μL, 1.0 mg/mL total protein concentration) were preincubated with varying concentrations of inhibitors at 37° C. After 30 min, FP—Rh (1.0 μL, 50 μM in DMSO) was added and the mixture was incubated for another 30 min at 37° C. Reactions were quenched with SDS loading buffer (50 μL-4×) and run on SDS-PAGE.

[2] = biological target: T2, ABHD6 (Mus musculus (Mouse), UniProt Q8R2Y0); assay: In vitro competitive activity-based protein profiling (mouse brain membrane fraction or cell lysates), ABHD6 band; assay type: biochemical; conditions: mouse proteome; for IC50: competitive ABPP; for inhibition at 1 µM: read-out: ABHD6 % Inh 1 μM (mouse)
How it was run: (§1)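 Mouse proteome samples (brain membrane fraction or cell lysate, 1.0 mg/mL protein) were pretreated with varying inhibitor concentrations and subsequently probed with fluorophosphonate-rhodamine, each step lasting 30 min at 37° C. Labelled proteins were separated by SDS-PAGE, and band fluorescence was imaged and quantified.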

[3] = biological target: T3, FAAH (Mus musculus (Mouse), UniProt O08914); assay: In vitro competitive activity-based protein profiling (mouse brain membrane fraction or cell lysates), FAAH band; assay type: biochemical; conditions: mouse proteome; for IC50: competitive ABPP; for inhibition at 1 µM: read-out: FAAH % Inh 1 μM (mouse)
How it was run: as §1

[4] = biological target: T1, MAGL; assay: Mouse brain proteomes from inhibitor treated mice (oral gavage, sacrificed 4 h after administration, ABPP analysis); assay type: in vivo, mouse (C57Bl/6J); conditions: 5 mg/kg oral gavage
Description: (§2) Preparation of Mouse Brain Proteomes from Inhibitor Treated Mice.
(§3) Inhibitors were administered to wild-type C57Bl/6J by oral gavage in a vehicle, e.g. PEG400/Ethanol/PBS (7/2/1). Each animal was sacrificed 4 h following administration and brain proteomes were prepared and analyzed according to previously established methods (See Niphakis, M. J., et al. (2011) ACS Chem. Neurosci. and Long, J. Z., et al. Nat. Chem. Biol. 5:37-44). Data from this assay is shown in Table 2 (% inhibition at 5 mg/kg).

[5] = biological target: T3, FAAH; assay: Mouse brain proteomes from inhibitor treated mice (oral gavage, sacrificed 4 h after administration, ABPP analysis), FAAH; assay type: in vivo, mouse (C57Bl/6J); conditions: 5 mg/kg oral gavage
Description: as §2, §3

[6] = biological target: T2, ABHD6; assay: Mouse brain proteomes from inhibitor treated mice (oral gavage, sacrificed 4 h after administration, ABPP analysis), ABHD6; assay type: in vivo, mouse (C57Bl/6J); conditions: 5 mg/kg oral gavage
Description: as §2, §3

T3 sequence (O08914 whole entry): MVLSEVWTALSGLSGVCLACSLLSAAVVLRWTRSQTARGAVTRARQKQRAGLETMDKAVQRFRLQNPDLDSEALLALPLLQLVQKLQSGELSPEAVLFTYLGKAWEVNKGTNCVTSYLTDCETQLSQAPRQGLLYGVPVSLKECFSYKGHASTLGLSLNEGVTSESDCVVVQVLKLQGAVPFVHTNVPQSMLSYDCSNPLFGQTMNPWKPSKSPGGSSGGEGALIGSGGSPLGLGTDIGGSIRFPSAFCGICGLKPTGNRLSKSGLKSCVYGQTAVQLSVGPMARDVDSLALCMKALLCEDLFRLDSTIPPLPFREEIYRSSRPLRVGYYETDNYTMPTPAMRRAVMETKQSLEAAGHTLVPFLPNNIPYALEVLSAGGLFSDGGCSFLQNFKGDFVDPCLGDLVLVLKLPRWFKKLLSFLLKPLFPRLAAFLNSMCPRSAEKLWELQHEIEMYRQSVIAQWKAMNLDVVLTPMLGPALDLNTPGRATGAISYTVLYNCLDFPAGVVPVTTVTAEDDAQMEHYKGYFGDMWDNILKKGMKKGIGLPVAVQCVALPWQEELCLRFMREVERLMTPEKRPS
T2 sequence (Q8R2Y0 whole entry): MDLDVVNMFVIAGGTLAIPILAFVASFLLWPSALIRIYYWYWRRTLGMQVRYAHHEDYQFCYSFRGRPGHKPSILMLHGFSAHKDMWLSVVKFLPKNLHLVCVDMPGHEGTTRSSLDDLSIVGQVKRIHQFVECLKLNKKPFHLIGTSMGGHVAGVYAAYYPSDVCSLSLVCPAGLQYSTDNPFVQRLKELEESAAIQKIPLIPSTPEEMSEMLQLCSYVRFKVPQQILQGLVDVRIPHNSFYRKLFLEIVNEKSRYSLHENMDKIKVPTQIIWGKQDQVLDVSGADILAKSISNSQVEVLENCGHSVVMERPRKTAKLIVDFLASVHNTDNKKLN
T1 sequence (O35678 whole entry): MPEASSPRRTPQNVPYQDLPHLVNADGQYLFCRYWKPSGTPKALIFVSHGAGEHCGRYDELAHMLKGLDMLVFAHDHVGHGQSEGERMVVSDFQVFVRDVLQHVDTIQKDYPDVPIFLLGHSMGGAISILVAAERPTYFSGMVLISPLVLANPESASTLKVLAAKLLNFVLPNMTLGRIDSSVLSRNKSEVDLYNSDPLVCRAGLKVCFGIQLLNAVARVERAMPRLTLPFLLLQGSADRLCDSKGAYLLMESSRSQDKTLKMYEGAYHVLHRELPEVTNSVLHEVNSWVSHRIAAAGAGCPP

| SMILES | IC50 [1] [µM] | IC50 [2] [µM] | IC50 [3] [µM] | MAGL % Inh 5 mg/kg (mouse) [4] | FAAH % Inh 5 mg/kg (mouse) [5] | ABHD6 % Inh 5 mg/kg (mouse) [6] | inhibition at 1 µM [1] [%] | inhibition at 1 µM [2] [%] | inhibition at 1 µM [3] [%] |
| --- | --- | --- | --- | --- | --- | --- | --- | --- | --- |
| COc1cc(Cl)ccc1CN1CCCC12CCN(C(=O)OC(C(F)(F)F)C(F)(F)F)CC2 [Example 9, 1,1,1,3,3,3-Hexafluoropropan-2-yl 1-(4-chloro-2-methoxybenzyl)-1,8-diazaspiro[4.5]decane-8-carboxylate] | < 0.1 | > 1 | > 1 | ### (### is ≥75%) | # (# is <25%) | # (# is <25%) |  |  |  |
| COc1c(Cl)cccc1CN1CCCC12CCN(C(=O)OC(C(F)(F)F)C(F)(F)F)CC2 [Example 10, 1,1,1,3,3,3-Hexafluoropropan-2-yl 1-(3-chloro-2-methoxybenzyl)-1,8-diazaspiro[4.5]decane-8-carboxylate] | < 0.1 | > 1 | > 1 | ### (### is ≥75%) | ## (## is equal to or greater than 25% but less than 75%) | # (# is <25%) |  |  |  |
| O=C(OC(C(F)(F)F)C(F)(F)F)N1CCC2(CCN(Cc3ccc(Cl)cc3N3CCCC3)C2)CC1 [Example 17, 1,1,1,3,3,3-Hexafluoropropan-2-yl 2-(4-chloro-2-(pyrrolidin-1-yl)benzyl)-2,8-diazaspiro[4.5]decane-8-carboxylate] | < 0.1 | > 1 | > 1 | ## (## is equal to or greater than 25% but less than 75%) | # (# is <25%) | # (# is <25%) | > 75 | ≥ 75 | < 25 |
| O=C(OC(C(F)(F)F)C(F)(F)F)N1CCC2(CCN(Cc3c(N4CC5COCC5C4)cccc3C(F)(F)F)C2)CC1 (stereo not drawn) [Example 18, 1,1,1,3,3,3-Hexafluoropropan-2-yl 2-(2-(tetrahydro-1H-furo[3,4-c]pyrrol-5(3H)-yl)-6-(trifluoromethyl)benzyl)-2,8-diazaspiro[4.5]decane-8-carboxylate] | < 0.1 | > 1 | > 1 | ## (## is equal to or greater than 25% but less than 75%) | # (# is <25%) | # (# is <25%) | > 75 | 25 to 75 | < 25 |
| O=C(OC(C(F)(F)F)C(F)(F)F)N1CCC2(CCCN2Cc2ccc(Cl)cc2N2CCN(CCF)CC2)CC1 [Example 19, 1,1,1,3,3,3-Hexafluoropropan-2-yl 1-(4-chloro-2-(4-(2-fluoroethyl)piperazin-1-yl)benzyl)-1,8-diazaspiro[4.5]decane-8-carboxylate] | < 0.1 | > 1 | > 1 | ## (## is equal to or greater than 25% but less than 75%) | # (# is <25%) | # (# is <25%) |  |  |  |
| O=C(OC(C(F)(F)F)C(F)(F)F)N1CCC2(CCN(Cc3ccc(Cl)cc3N3CCOCC3)C2)CC1 [Example 21, 1,1,1,3,3,3-Hexafluoropropan-2-yl 2-(4-chloro-2-morpholinobenzyl)-2,8-diazaspiro[4.5]decane-8-carboxylate] | < 0.1 | 0.1 to 1 | > 1 | ### (### is ≥75%) | # (# is <25%) | ## (## is equal to or greater than 25% but less than 75%) | > 75 | ≥ 75 | < 25 |
| O=C(OC(C(F)(F)F)C(F)(F)F)N1CCC2(CCN(Cc3ccc(C(F)(F)F)cc3N3CCOCC3)C2)CC1 [Example 22, 1,1,1,3,3,3-Hexafluoropropan-2-yl 2-(2-morpholino-4-(trifluoromethyl)benzyl)-2,8-diazaspiro[4.5]decane-8-carboxylate] | < 0.1 | 0.1 to 1 | > 1 | ### (### is ≥75%) | # (# is <25%) | # (# is <25%) | > 75 | ≥ 75 | < 25 |
